Experimental findings from patent publication US10441568B2, “Nitroxide radicals for the treatment of diseases of the respiratory tract” (priority 2015, dated 2019) are described below.

The assay concerns IFN-γ. As to the kind of experiment: IFN-γ level in OVA asthma model. The format is in vivo, BALB/c mice. Conditions: for IFN-γ level: lung tissue (table title). As for the experimental part:
All experimental procedures were carried out in accordance with the NIH Guidelines for the Care and Use of Laboratory Animals. Specific pathogen-free (SPF) male BALB/c mice (6-7 weeks of age, 18-22 grams), routinely screened serologically for relevant respiratory pathogens, were maintained in an animal housing facility for 1 week before use and given access to food and water ad libitum. Animals were randomly assigned to the indicated experimental groups, and sensitized with two intraperitoneal (IP) injections (20 μg ovalbumin (OVA) emulsified in 2 mg aluminum hydroxide (an adjuvant) in 200 μl phosphate buffer saline (PBS), pH 7.4), on days 1 and 10.
After another week, the animals were challenged by exposure to ovalbumin (OVA) aerosol (1%, w/v, in PBS) for 30 minutes each day on days 17, 18 and 19, in order to elicit an inflammatory reaction in the lungs characterized by airway hyper-responsiveness (AHR), an influx of inflammatory cells (particularly eosinophils), and increased pulmonary levels of various cytokines and transforming growth factors, protein nitration and lipid peroxidation.
Bronchoalveolar lavage (BAL) fluid (also referred to herein as “BALf”) and bronchial submucosal inflammation are characteristic features of asthma. Mice were euthanized with an overdose of 50 mg/kg pentobarbital and ice-cold phosphate buffer saline (PBS) (0.6 ml) was instilled into the lungs. BAL fluid was obtained by three aspirations via tracheal cannulation, centrifuged, and the supernatant collected and stored at −70° C. Cell pellets were re-suspended in PBS and 100 μl aliquots placed onto slides and centrifuged (200 g, 4° C., 10 minutes) in a cytospin machine. Induction of oxidative stress was evaluated using a 2′,7′-dichlorofluorescein fluorescence assay, and total IgE, IgG2a, panel of cytokines, transforming growth factors, collagen, protein nitration and lipid peroxidation were measured using commercial kits according to the manufacturer's recommendations. A Sircol™ collagen assay kit was obtained from Biocolor Life Sciences Assays, a protein nitration assay kit was obtained from Abcam, and other assay kits were obtained from PeproTech Asia.
The efficacy of oral administration of 3-CP (1 weight percent in chow) during the sensitization period and/or challenge period was then compared to IP injection (˜300 mg/kg, 0.5 hour before the OVA challenge) or intranasal instillation (˜150 mg/kg, 0.5 hour before the OVA and 6 hours later) of 3-CP, as well as to dexamethasone treatment (1 mg/kg, 3 daily IP injections, 0.5 hour prior to the challenge with OVA aerosol).
In order to assess the effect of 3-CP on inflammatory signaling pathways, […] to procedures described hereinabove, upon oral, intranasal or IP administration of 3-CP.

Regarding `CC1(C)CC(C(N)=O)C(C)(C)N1[O]` (stereo not drawn) [3-CP, 3-Carbamoyl-2,2,5,5-tetramethyl-pyrrolidin-1-oxyl], the IFN-γ level was 5.17 ± 0.19 ng/mg (OVA IP-C: 3-CP intraperitoneal during challenge); 5.32 ± 0.38 ng/mg (OVA oral-C: 3-CP oral during challenge); 5.60 ± 0.22 ng/mg (OVA oral-S&C: 3-CP oral during sensitization and challenge); 3.78 ± 0.27 ng/mg (OVA oral-S: 3-CP oral during sensitization). Also, the “effect on OVA-induced decrease in the level of INF-γ” value (lung tissue, FIG. 7C and Table 1) was “inhibited”. The “modulating IFN-γ level, oral compared with IP 3-CP” value (oral administration vs IP injection) is “consistently more effective than IP injection of 3-CP”.
